“Also recorded” adds a separate entry of the source. Like-named read-outs stand apart in the source and are kept apart here.

Data set [1] concerns human chronic myeloid leukemia cells (K-562). Description: antiproliferation assay (CellTiter-Blue). The conditions noted are these: for GI50: K-562, 72 h, read-out: Antiproliferative Effect, GI50 (CI 95%); for antiproliferative activity in words: K-562. Type of data set: cell-based. How it is done: (§1) In this assay, K-562 (DSM ACC 10), THP-1 (DSM ACC 16), and HeLa (DSM ACC 57) were maintained in Roswell Park Memorial Institute (RPMI) 1640 medium (Cambrex 12-167F) while HUVEC (ATCC CRL-1730) and A549 (DSM ACC 107) were cultured in Dulbecco’s Modified Eagle’s Medium (DMEM) (Cambrex 12-614F). Cells that were grown in the appropriate cell culture medium were supplemented with 10 mL/L ultraglutamine 1 (Cambrex 17-605E/U1), 550 µL/L (50 mg/mL) gentamicin sulfate (Cambrex 17-518Z), and 10% heat inactivated fetal bovine serum (GIBCO Life Technologies 10270-106) at 37 °C. The tested compounds were dissolved in DMSO, and the cells were seeded in 96-well plates at a density of 1 × 10^4 cells/well. As for the antiproliferative effect of the compounds, the cells were incubated for 72 h, and GI50 values were evaluated to be defined as the concentration causing 50% inhibition of proliferation compared to the untreated control. With regard to the cytotoxic assay, HeLa cells were pre-incubated for 48 h without the test compounds. Then, the cells were exposed with different concentrations of compounds and incubated for 72 h. After that, the adherent HeLa cells were fixed by glutaraldehyde and stained with a 0.05% solutions of methylene blue (SERVA 29198) for 15 min. CC50 was evaluated to be defined as the concentration required for the death of 50% of the cell monolayer as compared to control groups. Under our experimental conditions, the optical density measured from the CellTiter-Blue reagent and methylene blue assay is proportional to the number of viable cells. In this experiment, absorbances were measured at 570 nm against the reference wavelength of 600 nm (CellTiter-Blue assay) and at 660 nm (methylene blue assay). Doxorubicin (Adriamycin®) and imatinib (Gleevec®) were used as positive controls for HUVEC, K-562, and HeLa cells. A repeat determination has been conducted in all experiments, and four replicates were assayed. The calculations of the different values of GI50 and CC50 were performed with software Magellan version 3.00 (Tecan Trading AG, Maennedorf, Switzerland).
Background: Alamar Blue is a resazurin reagent that responds to reducing activity.

The subject of data set [2] is human lung carcinoma cells (A549). Description: antiproliferation assay (CellTiter-Blue). Type of data set: cell-based. The settings on record: A549, 72 h, read-out: Antiproliferative Effect, GI50 (CI 95%). How it is done: as §1
The test system of data set [3] is human umbilical vein endothelial cells (HUVEC). Description: antiproliferation assay (CellTiter-Blue). It counts as cell-based. The settings on record: 72 h, read-out: Antiproliferative Effect, GI50 (CI 95%). How it is done: as §1
Data set [4] has as its system human acute monocytic leukemia cells (THP-1). In words: antiproliferation assay (CellTiter-Blue). Type of data set: cell-based. The settings on record: for GI50: THP-1, 72 h, read-out: Antiproliferative Effect, GI50 (CI 95%). Here is the method: as §1
For data set [5], the system named is human cervix carcinoma cells (HeLa). In words: cytotoxicity assay (methylene blue). Type of data set: cell-based. Here is the method: as §1
Data set [6] has as its system Sporobolomyces salmonicolor (549 H4). Description: agar diffusion antifungal assay. It counts as cell-based. The settings on record: 50 μL of 1 mg/mL in DMSO, 18 h, 30 °C, amphotericin B 10 µg/mL. Here is the method:
(§2) Compounds 1, 2, 3, 5, 9, and 10 were tested for their antimicrobial activities against S. aureus (JMRC:STI 10760), B. subtilis (JMRC:STI 10880), S. aureus MRSA (JMRC: ST 33793) E. faecalis VRE (JMRC: ST 33700), E. coli (JMRC:ST 33699), P. aeruginosa (JMRC:ST 33771), P. aeruginosa (JMRC:ST 33772), M. vaccae (JMRC:STI 10670), S. salmonicolor (JMRC:ST 35974), C. albicans (JMRC:STI 25000), and P. notatum (JMRC:STI 50164)) using agar diffusion assay as previously published. Strains were obtained from the Jena Microbial Resource Collection (JMRC). The bacteria were cultivated on standard I nutrient agar in Petri dishes at 37 °C. Antifungal bioassays were conducted at 30 °C using the basidiomycetous yeast S. salmonicolor and the filamentous ascomycete P. notatum, which were cultivated on malt agar, and the ascomycetous yeast C. albicans, which was cultivated on yeast morphology agar. After inoculation of the test organisms, a disc (9 mm in diameter) was removed from the center of the Petri dish and 50 μL of the test solution (1 mg/mL in DMSO) was added to the cavity. After 18 h of incubation, the inhibiting areola were measured and documented as diameters in mm. Ciprofloxacin (5 µg/mL in deionized water) and amphotericin B (10 µg/mL in DMSO/MeOH 1:1) were used as reference substances against bacterial and fungal strains, respectively.

Data set [7] relates to Penicillium notatum (JP36 P1). Description: agar diffusion antifungal assay. Type of data set: cell-based. How it is done:
as §2
(In general: In agar diffusion tests the substance spreads into inoculated agar from a disc or well.)

The subject of data set [8] is Candida albicans (C.alb.H8). Description: agar diffusion antifungal assay. Type of data set: cell-based. The conditions noted are these: for zone of inhibition at 1000 µg/mL: read-out: Inhibition Zone of Test Microorganism; for antifungal activity in words: Candida albicans, agar diffusion. Here is the method:
as §2

Data set [9] has as its system Escherichia coli (458 B4). Description: agar diffusion antimicrobial assay. It counts as cell-based. The settings on record: 50 μL of 1 mg/mL in DMSO, 18 h, ciprofloxacin 5 µg/mL. Here is the method: as §2
Data set [10] has as its system Enterococcus faecalis (VRE 1528 R10). In words: agar diffusion antimicrobial assay. It counts as cell-based. The conditions noted are these: for zone of inhibition at 1000 µg/mL: read-out: Inhibition Zone of Test Microorganism. How it is done: as §2
Data set [11] concerns Bacillus subtilis (6633 B1). In words: agar diffusion antimicrobial assay. It counts as cell-based. The conditions noted are these: Bacillus subtilis (6633 B1), 50 μL of 1 mg/mL in DMSO, 18 h, ciprofloxacin 5 µg/mL; for zone of inhibition at 1000 µg/mL: read-out: Inhibition Zone of Test Microorganism. Here is the method:
as §2

Data set [12] concerns Staphylococcus aureus (MRSA 134/94 R9). Description: agar diffusion antimicrobial assay. The settings on record: 50 μL of 1 mg/mL in DMSO, 18 h, ciprofloxacin 5 µg/mL. Type of data set: cell-based. How it is done:
as §2

Data set [13] concerns Mycobacterium vaccae (10670 M4). In words: agar diffusion antimicrobial assay. It counts as cell-based. The conditions noted are these: for zone of inhibition at 1000 µg/mL: Mycolicibacterium vaccae, read-out: Inhibition Zone of Test Microorganism. Here is the method:
as §2

Data set [14] relates to Staphylococcus aureus (511 B3). Description: agar diffusion antimicrobial assay. It counts as cell-based. The conditions noted are these: 50 μL of 1 mg/mL in DMSO, 18 h, ciprofloxacin 5 µg/mL. Here is the method:
as §2

The test system of data set [15] is Pseudomonas aeruginosa (K799/61 B9). In words: agar diffusion antimicrobial assay. Type of data set: cell-based. The settings on record: 18 h; for Inhibition Zone of Test Microorganism: Pseudomonas aeruginosa (K799/61 B9), 50 μL of 1 mg/mL in DMSO, ciprofloxacin 5 µg/mL. Here is the method:
as §2

For data set [16], the system named is Pseudomonas aeruginosa (SG137 B7). Description: agar diffusion antimicrobial assay. Type of data set: cell-based. The settings on record: 50 μL of 1 mg/mL in DMSO, 18 h, ciprofloxacin 5 µg/mL. Here is the method: as §2
Data set [17] in a line: cytotoxicity assay (methylene blue). The settings on record: human, HeLa cells (DSM ACC 57); HeLa, 72 h; read-out: Cytotoxicity CC50 (CI 95%). Type of data set: cell-based, human. How it is done:
as §1

Data set [18] relates to three fungi and eight bacterial strains. Description: agar diffusion assay, whole panel. It counts as cell-based. The conditions noted are these: eleven microorganisms. Here is the method:
as §2

The mark [19] stands for this setting: Candida albicans (C.alb.H8), 50 μL of 1 mg/mL in DMSO, 18 h, 30 °C, amphotericin B 10 µg/mL.
Setting [20] is: Enterococcus faecalis (VRE 1528 R10), 50 μL of 1 mg/mL in DMSO, 18 h, ciprofloxacin 5 µg/mL.
Setting [21] is: Mycobacterium vaccae (10670 M4), 50 μL of 1 mg/mL in DMSO, 18 h, ciprofloxacin 5 µg/mL.
Setting [22] is: read-out: Inhibition Zone of Test Microorganism.

In general, GI50 refers to the concentration that inhibits growth by half. Broadly, the CC50 is the concentration that lowers cell viability or growth by half. Take “3,5,3′-Trihydroxy-7,2′-dimethoxyflavonol [Compound 11]”: the GI50 is 71.5 µM in [1], 67 µM in data set [2], above 100 µM in data set [3] and 50.6 µM in [4]. Also, the CC50 in data set [5] is above 100 µM.

As to `C[C@@H]1[C@H](O)[C@@H](C)/C=C/C=C/C=C/C=C/C=C/C=C/C=C/[C@H](O[C@@H]2O[C@H](C)[C@@H](O)[C@H](N)[C@@H]2O)C[C@@H]2O[C@](O)(C[C@@H](O)C[C@@H](O)[C@H](O)CC[C@@H](O)C[C@@H](O)CC(=O)O[C@H]1C)C[C@H](O)[C@H]2C(=O)O` [Amphotericin B, reference compound], the “Inhibition Zone of Test Microorganism” value is listed as 19 mm in [6]; 19 mm in data set [7] (Penicillium notatum (JP36 P1), 50 μL of 1 mg/mL in DMSO, 18 h, 30 °C, amphotericin B 10 µg/mL); 20 mm in [8] (setting [19]).

For `O=C(O)c1cn(C2CC2)c2cc(N3CCNCC3)c(F)cc2c1=O` [Ciprofloxacin, reference compound], the “Inhibition Zone of Test Microorganism” value in [9] is given as 32 mm; in [10] (setting [20]), 16 mm; in data set [11] it was 29 mm; in [12], “-”; in [13] (setting [21]), 22 mm; in data set [14] it was 19 mm.

By zone of inhibition is commonly meant the extent of the growth-free halo in a diffusion test. For the molecule `O=C1C[C@@H](c2cccc(O)c2O)Oc2cc(O)cc(O)c21` [Compound 3, (2S)-5,7,2′,3′-Tetrahydroxyflavanone], the figures for the zone of inhibition at 1000 µg/mL in data set [10] (setting [20]), in [11] and in data set [13] (setting [21]) were 17 mm, 12 mm and 23 mm, respectively. In addition, the “antibacterial activity in words” value was “highest antibacterial activity” in [10] (Enterococcus faecalis VRE, agar diffusion) and “highest antibacterial activity” in data set [13] (Mycobacterium vaccae, agar diffusion, compared to ciprofloxacin). In addition, the “Inhibition Zone of Test Microorganism” value in [12], in data set [15] and in data set [16] was “-” throughout. For the same molecule, the GI50 in data set [1] (Homo sapiens, K562) is 32.3 µM; in data set [2] (Homo sapiens) it was above 100 µM; in [3] (Homo sapiens), above 100 µM; in data set [4] (Homo sapiens), above 100 µM. Moreover, the “antiproliferative activity in words” value in [1] is listed as “selective antiproliferative inhibition effect”. Further, the CC50 at 72 h in data set [17] was above 100 µM. Also, the “antimicrobial activity over the panel in words” value in data set [18] was “most active”.

`O=C1CC(c2cccc(O)c2O)Oc2cc3c(c(O)c21)OCO3` (centres unmarked) [Compound 5, 5,2′,3′-Trihydroxy-6,7-methylenedioxyflavanone]: the zone of inhibition at 1000 µg/mL in [10] (setting [20]) is 13 mm; in data set [11], 13 mm; in data set [12] (setting [22]), 13 mm; in [15] (Pseudomonas aeruginosa, read-out: Inhibition Zone of Test Microorganism) it was 17 mm; in data set [13] (setting [21]) it was 20 mm; in data set [14] (setting [22]), 15 mm. Besides, the zone of inhibition at 1000 µg/mL worked out at 16 mm in [7] (Penicillium chrysogenum, Penicillium notatum (JP36 P1), 50 μL of 1 mg/mL in DMSO, 18 h, 30 °C, amphotericin B 10 µg/mL, read-out: Inhibition Zone of Test Microorganism) and 13 mm in data set [8] (setting [19]). Moreover, the “Inhibition Zone of Test Microorganism” value in data set [16] was “-”. Moreover, the GI50 in data set [1] (Homo sapiens, K562) was 44.3 µM; in data set [2] (Homo sapiens) it was above 100 µM; in data set [3] (Homo sapiens), 69 µM; in data set [4] (Homo sapiens) it was 16.5 µM. Further, the CC50 at 72 h in data set [17] is above 100 µM. The “antimicrobial activity over the panel in words” value in [18] is on record as “most active; also recorded: broad activity against eight microorganisms out of eleven”. Also, the “antifungal activity in words” value in data set [7] (Penicillium notatum, agar diffusion) is recorded as “moderate activity”; in data set [8] it was “weak activity”.

On to `COc1cc2occ(-c3cccc(O)c3O)c(=O)c2c(O)c1OC` [Compound 10, 5,2′,3′-Trihydroxy-6,7-dimethoxyisoflavone], for which the zone of inhibition at 1000 µg/mL in [10] (setting [20]) came to 13 mm; in data set [11], 13 mm; in data set [13] (setting [21]) it was 16 mm; in data set [8] (setting [19]), 13 mm. In addition, the “Inhibition Zone of Test Microorganism” value in data set [12], in [15] and in data set [16] was “-” in each case. Besides, the GI50 in data set [1] (Homo sapiens, K562) stood at 7.6 µM; in [2] (Homo sapiens) it was 98.8 µM; in data set [3] (Homo sapiens) it was 35.8 µM; in data set [4] (Homo sapiens), 9.1 µM. The “antiproliferative activity in words” value in data set [1] and in data set [4] (THP-1) was “active” in each case. In [17], the CC50 at 72 h was above 100 µM. Moreover, in data set [18], the “antimicrobial activity over the panel in words” value is “most active”. Besides, the “antifungal activity in words” value in data set [8] was “weak activity”.

For the origin of these results see PMC8588511, “Chromane Derivatives from Underground Parts of Iris tenuifolia and Their In Vitro Antimicrobial, Cytotoxicity and Antiproliferative Evaluation” (Molecules, 2021).
